In ChEMBL document CHEMBL5442663, “ASAP - Solubility” (2024):
Converted amounts (≈) assume the structure as drawn.

Experiment: Kinetic solubility of compound by measuring concentration at pH 7.4 in saturated PBS buffer by UV LCMS/MS using calibration curves. The assay has been performed by Enamine biological services, Bienta Ltd.The protocol is publicly available: dx.doi.org/10.17504/protocols.io.j8nlk8y41l5r/v1
Format: physicochemical
Details: PBS buffer

Row | SMILES | solubility kinetic [µM]
1 | COc1ccc([C@H](Cc2nnn[nH]2)NC(=O)c2ncnc3[nH]ccc23)cc1 | 367 (≈ 134 µg/mL)
2 | C[C@H](C(=O)O)[C@@H](NC(=O)c1ncnc2[nH]ccc12)c1ccc(Br)cc1 | 358 (≈ 144 µg/mL)
3 | CC(C)[C@H](Nc1ncnc2[nH]c(-c3cnn(CC(=O)N(C)C)c3)cc12)c1ccc2c(c1)OCCO2 | 19 (≈ 9.04 µg/mL)
